Assay results: publication PMC9962329, “Photocaging of Pyridinylimidazole-Based Covalent JNK3 Inhibitors Affords Spatiotemporal Control of the Binding Affinity in Live Cells” (Pharmaceuticals, 2023)

Experiments:
JNK3 [1] = biological target: T1, JNK3 (Homo sapiens, UniProt P53779); test: radiometric JNK3 activity assay at Eurofins Discovery; type: biochemical; conditions: for IC50: radiometric JNK3 activity assay; for decreased biological activity compared to parent compound 1: radiometric assay, relative to 1 (IC50 = 6 nM)
T1 sequence (P53779 whole entry): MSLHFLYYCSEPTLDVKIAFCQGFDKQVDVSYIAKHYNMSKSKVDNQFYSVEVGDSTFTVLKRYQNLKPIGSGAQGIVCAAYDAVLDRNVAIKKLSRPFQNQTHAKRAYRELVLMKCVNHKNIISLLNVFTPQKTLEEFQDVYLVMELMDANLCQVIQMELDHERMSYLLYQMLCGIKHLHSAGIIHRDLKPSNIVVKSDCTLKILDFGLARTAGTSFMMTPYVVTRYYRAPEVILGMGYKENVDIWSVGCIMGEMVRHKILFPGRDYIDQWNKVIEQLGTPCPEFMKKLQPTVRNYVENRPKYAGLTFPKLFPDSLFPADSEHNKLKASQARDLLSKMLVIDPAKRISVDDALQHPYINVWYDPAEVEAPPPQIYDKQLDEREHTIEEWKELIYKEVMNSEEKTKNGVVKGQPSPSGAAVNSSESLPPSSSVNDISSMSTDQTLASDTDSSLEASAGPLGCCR

JNK3 [2] = biological target: T1, JNK3; test: NanoBRET TE intracellular JNK3 assay; type: cell-based; conditions: for IC50 / decreased binding affinity compared to lead structure 1: NanoBRET TE intracellular JNK3 assay; for IC50: tracer K-10 0.25 µM, means of at least two independent experiments, read-out: JNK3 IC50 ± SEM; for decreased binding affinity compared to lead structure 1: relative to 1 (IC50 = 243 nM)
Procedure: The NanoBRET™ TE intracellular JNK3 assay was performed as previously described by Andreev et al., with minor modifications.
Cells were treated with trypsin and centrifuged (210× g, 5 min) one day prior to the experiment. Afterwards, cells were resuspended in Leibovitz’ L-15 medium, supplemented with 5% FCS and 10 mM HEPES, and the suspension was adjusted to a density of 300.000 cells per mL. Meanwhile the transfection reagent was prepared. For a 96-well plate, transfection carrier DNA (4 µg) (Promega, Fitchburg, WI, USA) and JNK3-NanoLuc® Fusion vector (0.45 µg) (Promega) were diluted in Leibovitz’ L-15 medium (450 µL) and, finally, X-tremeGENE HP (13.5 µL) (Roche Diagnostics, Mannheim, Germany) was added. The mixture was incubated for 20 min at room temperature. Subsequently, the lipid–DNA complex was added to 9 mL of the cell suspension. A total of 80 µL of this cell suspension were added to each well of a white 96-well plate (Brand, Wertheim, Germany), which was incubated for 24 h at 37 °C (no additional CO2).
The fluorescent tracer K-10 (Promega, Mannheim, Germany) was diluted in DMSO to a concentration of 25 µM (100-fold more concentrated than the final assay concentration). This was further diluted 10-fold using the tracer dilution buffer (Promega, Mannheim, Germany), yielding a dilution which was 10-fold more concentrated than the final assay concentration. Next, 10 µL of the final fluorescent tracer dilution were added to the cells (the final concentration of K-10 in the assay was 0.25 µM).

JNK3 [3] = biological target: T1, JNK3; test: compound washout (kinetic analysis) in the NanoBRET assay; type: cell-based; conditions: 2 h incubation at 10-fold IC50, four washes, tracer 1 µM
Procedure: To study the putative covalent binding of inhibitors 8 and 13, we next applied the compound washout method in the NanoBRET^TM assay. Briefly, we established a protocol where the compound dissociation of 8 and 13 was determined indirectly by their ability to inhibit binding of the ATP-competitive tracer. The covalent inhibitor 1 was used as a positive control, and the propionamide 10 was used as a negative control.
For kinetic analyses experiments, plates were coated with crosslinked gelatin to improve cell adhesion. The transfection of the cells was carried out as described above, but 90 µL of cell suspension were seeded. The next day, cells were first incubated with the test compound in a 10-fold concentration of the respective IC50 value. After 2 h, the unbound compound was removed by washing the cells four times with 100 µL of Leibovitz’ L-15. Furimazine was then added according to the manufacturer`s protocol. Afterwards, a near-saturating concentration of tracer (1 µM) was added, and the measurement was started immediately.

JNK3 [4] = biological target: T1, JNK3; design: method as in PMID 34081840; conditions: light pulses at 390 nm, trans-cis switch; cited from earlier work
JNK3 [5] = biological target: T1, JNK3; design: method as in PMID 34081840; conditions: cellular NanoBRET assay, light pulses at 400 nm; cited from earlier work
JNK3(C154A)-NLuc = biological target: T2, JNK3(C154A)-NLuc (Homo sapiens, UniProt P53779, C154A); test: NanoBRET TE intracellular assay with JNK3(C154A)-NLuc mutant; type: cell-based; conditions: single point mutation C154A
T2 construct: mutant made in house by PCR
T2 sequence (P53779 whole entry C154A): as the sequence (P53779 whole entry) above, with C154A counted along it
Procedure: To generate the cDNA of the JNK3(C154A)-NLuc mutant, JNK3-NanoLuc® Fusion vector (Promega) was used as a template, and two partially overlapping primers (5′-[…] and 5′-[…]) (synthesized by Eurofins, Ebersberg) annealed to the template. Phusion HF DNA Polymerase was obtained from New England BioLabs (Frankfurt, Germany). The polymerase chain reaction (PCR) was carried out as described in the Phusion HF polymerase protocol. The PCR product was treated with Dpn I endonuclease and transformed into competent E. coli Top 10 cells. Point mutation was confirmed by sequencing (Eurofins Discovery).

Structure (SMILES)	IC50 (JNK3 [1]) [nM]	IC50 (JNK3 [2]) [nM]	compound dissociation after washout (displacement by tracer) (JNK3 [3])	increase in biochemical activity by light (factor) (JNK3 [4])	increase in inhibitory potency by light (factor) (JNK3 [5])	decreased biological activity compared to parent compound 1 (JNK3 [1])	decreased binding affinity compared to lead structure 1 (JNK3 [2]) [fold]	change in binding affinity for JNK3(C154A)-NLuc versus wildtype JNK3-NLuc (JNK3(C154A)-NLuc)	decrease in JNK3 binding by introduction of the photocleavable protecting group (JNK3 [2]; NanoBRET assay, without irradiation, relative to parent 13)
C=CC(=O)Nc1cccc(C(=O)Nc2ccc(Nc3cc(-c4c(-c5ccc(F)cc5)nc(SC)n4C)ccn3)cc2)c1 [compound 1, acrylamido-N-(4-((4-(4-(4-fluorophenyl)-1-methyl-2-(methylthio)-1H-imidazol-5-yl)pyridin-2-yl)amino)phenyl)benzamide, reference compound]	6	243 ± 75	remained persistently bound						
C=CC(=O)Nc1ccc2c(c1)CCc1cc(Nc3cc(-c4c(-c5ccc(F)cc5)nc(SC)n4C)ccn3)ccc1/N=N\2 [compound 2]				30	factor of only two				
C=CC(=O)Nc1cccc(C(=O)N(C)c2ccc(Nc3cc(-c4c(-c5ccc(F)cc5)nc(SC)n4C)ccn3)cc2)c1 [compound 8, 3-Acrylamido-N-(4-((4-(4-(4-fluorophenyl)-1-methyl-2-(methylthio)-1H-imidazol-5-yl)pyridin-2-yl)amino)phenyl)-N-methylbenzamide hydrotrifluoroacetate]	14	1360 ± 342	remained persistently bound			two-fold decreased	4	dramatic decrease in the binding affinity	
CCC(=O)Nc1cccc(C(=O)N(C)c2ccc(Nc3cc(-c4c(-c5ccc(F)cc5)nc(SC)n4C)ccn3)cc2)c1 [compound 10, N-(4-((4-(4-(4-Fluorophenyl)-1-methyl-2-(methylthio)-1H-imidazol-5-yl)pyridin-2-yl)amino)phenyl)-N-methyl-3-propionamidobenzamide]	24	5020 ± 97	quickly displaced by the tracer						
C=CC(=O)Nc1cccc(NC(=O)c2ccc(N(Cc3cc(OC)c(OC)cc3[N+](=O)[O-])c3cc(-c4c(-c5ccc(F)cc5)nc(SC)n4C)ccn3)cc2)c1 [compound 17, N-(3-Acrylamidophenyl)-4-((4,5-dimethoxy-2-nitrobenzyl)(4-(4-(4-fluorophenyl)-1-methyl-2-(methylthio)-1H-imidazol-5-yl)pyridin-2-yl)amino)benzamide hydrotrifluoroacetate]		9490 ± 538							nearly one order of magnitude
CCC(=O)Nc1cccc(NC(=O)c2ccc(Nc3cc(-c4c(-c5ccc(F)cc5)nc(SC)n4C)ccn3)cc2)c1 [compound 14, 4-((4-(4-(4-Fluorophenyl)-1-methyl-2-(methylthio)-1H-imidazol-5-yl)pyridin-2-yl)amino)-N-(3-propionamidophenyl)benzamide]	22	> 10000							
C=CC(=O)Nc1cccc(NC(=O)c2ccc(Nc3cc(-c4c(-c5ccc(F)cc5)nc(SC)n4C)ccn3)cc2)c1 [compound 13, N-(3-Acrylamidophenyl)-4-((4-(4-(4-fluorophenyl)-1-methyl-2-(methylthio)-1H-imidazol-5-yl)pyridin-2-yl)amino)benzamide hydrotrifluoroacetate]	13	1060 ± 252	remained persistently bound			two-fold decreased	5.5	dramatic decrease in the binding affinity	
